A short description of series [1]: In-vivo toxicity by body weight depending on time, and death, in tumor-bearing mice. The settings on record: HT-29 tumor-bearing nude mice.
Experimental: Specifically, athymic nude mice (6-week-old, 20-25 g, male) purchased from Nara Bio (Gyenggi-do, Korea) were used. In order to express colorectal cancers in the male nude mice, a tumor animal model was prepared by subcutaneously inoculating 1×10^7 HT-29 colorectal cancer cells into left thighs. […] The formulated drug conjugate (FDOX) was administered intravenously at a concentration of 4 mg/kg, and the anti-PD-L1 antibody was administered intraperitoneally at a concentration of 10 mg/kg. A test group (FDOX+PD-L1 Ab) was prepared by administering the two therapeutic agents at 3-day intervals.
For the test group, the control group and the first, second and third comparison groups, tumor size was measured at 2-day intervals and calculated as maximum diameter×minimum diameter. In addition, the body weight of each group was measured at 2-day intervals to investigate in-vivo toxicity.
On the set-up of series [2]: species or system athymic nude mice. As to conditions: mouse, in vivo. Here is the method: For the animal models of the second and third comparison groups, the organs were extracted on day 20 after the drug administration because the animals died within 20 days. After preparing tissues of each extracted organ into 10-μm thick sections, cell death in the organ was evaluated by staining cancerous tissues with annexin V. In addition, the tissues extracted from the major organs (heart, kidney, spleen, lung and liver) were stained with hematoxylin and eosin for investigation of the structural change in the tissues and toxicity.

The test system of series [3] is HT-29 colorectal cancer cells. Kind of series: Tumor-treating effect in vivo, tumor volume depending on time, HT-29 tumor animal model. Further details: species or system athymic nude mice. The settings on record: HT-29 tumor in nude mice; FDOX or DOX 4 mg/kg intravenously, anti-PD-L1 antibody 10 mg/kg intraperitoneally, 3-day intervals. As to the method: The following comparison groups were prepared to compare the efficiency of the test group.
Control group (control): identical to the test group except that no drug was administered.
First comparison group (FDOX): identical to the test group except that only the formulated drug conjugate (FDOX) was administered without the anti-PD-L1 antibody.
Second comparison group (DOX+PD-L1 Ab): identical to the test group except that 4 mg/kg of doxorubicin was administered intravenously instead of the formulated drug conjugate (FDOX).

As to `COc1cccc2c1C(=O)c1c(O)c3c(c(O)c1C2=O)C[C@@](O)(C(=O)CO)C[C@@H]3O[C@H]1C[C@H](N)[C@H](O)[C@H](C)O1` [DOX, doxorubicin], the “in-vivo / systemic toxicity” value in series [1] was “fatal side effect leading to death”. In series [2], the “change in the major organs (H&E)” value is “long-term toxicity such as hemorrhage, disruption of tissue structure, enucleation”. Moreover, in series [3], the “tumor growth (tumor volume depending on time)” value is “could be delayed but could not be completely inhibited”.
